Laboratory results taken from ChEMBL document CHEMBL1201862, “PubChem BioAssay data set” (2004).
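These data come from cells grown in 96-well plates and exposed to compound for 48 hours at five concentrations. GI50 = concentration required for 50% inhibition of growth.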 Activity calls are given as the source filed them. Rule as the data show it: active = GI50 up to about 1.1 µM and inactive = higher.

Assays:
Assay in all cases: NCI-60 cell line screen, 48 h
UACC-257 = test system: UACC-257
CCRF-CEM = test system: CCRF-CEM
SF-295 = test system: SF-295
U-251 = test system: U-251
HOP-92 = test system: HOP-92
T47D = test system: T47D
SF-539 = test system: SF-539
NCI-H460 = test system: NCI-H460
SK-OV-3 = test system: SK-OV-3
Hs-578T = test system: Hs-578T
HT-29 = test system: HT-29
MDA-N = test system: MDA-N
SNB-19 = test system: SNB-19
ACHN = test system: ACHN
MOLT-4 = test system: MOLT-4
UACC-62 = test system: UACC-62
SK-MEL-5 = test system: SK-MEL-5
CAKI-1 = test system: CAKI-1
A549 = test system: A549
HL-60 = test system: HL-60
IGROV-1 = test system: IGROV-1
SNB-75 = test system: SNB-75
COLO 205 = test system: COLO 205
DU-145 = test system: DU-145
SK-MEL-2 = test system: SK-MEL-2
MDA-MB-231 = test system: MDA-MB-231
OVCAR-8 = test system: OVCAR-8
KM12 = test system: KM12
NCI-H23 = test system: NCI-H23
786-0 = test system: 786-0
HCT-15 = test system: HCT-15
MDA-MB-435 = test system: MDA-MB-435
OVCAR-4 = test system: OVCAR-4
HCT-116 = test system: HCT-116
SW-620 = test system: SW-620
HOP-62 = test system: HOP-62
OVCAR-3 = test system: OVCAR-3
Malme-3M = test system: Malme-3M
SK-MEL-28 = test system: SK-MEL-28
NCI-H522 = test system: NCI-H522
EKVX = test system: EKVX
RPMI-8226 = test system: RPMI-8226
M14 = test system: M14
OVCAR-5 = test system: OVCAR-5
BT-549 = test system: BT-549
K562 = test system: K562
RXF 393 = test system: RXF 393
NCI/ADR-RES = test system: NCI/ADR-RES
A498 = test system: A498
UO-31 = test system: UO-31
NCI-H226 = test system: NCI-H226
SN12C = test system: SN12C
MCF7 = test system: MCF7
SR = test system: SR
PC-3 = test system: PC-3
SF-268 = test system: SF-268
HCC 2998 = test system: HCC 2998
TK-10 = test system: TK-10
LOX IMVI = test system: LOX IMVI

In the case of `O=C1OCC/C1=C/c1ccc(/N=N/c2c(O)ccc3ccccc23)cc1`, the GI50 (UACC-257) is reported as 20.7 µM (inactive), the GI50 (CCRF-CEM) is reported as 22.9 µM (inactive) and the GI50 (SF-295) is reported as 25.3 µM (inactive). For the same compound, the GI50 (U-251) was 18.7 µM (inactive), the GI50 (HOP-92) was 27.4 µM (inactive) and the GI50 (T47D) was 39.4 µM (inactive). For the same compound, the GI50 (SF-539) was 18.4 µM (inactive), the GI50 (NCI-H460) was 19.7 µM (inactive) and the GI50 (SK-OV-3) was 28.3 µM (inactive). For the same compound, the GI50 (Hs-578T) was 27.2 µM (inactive), the GI50 (HT-29) was 19.4 µM (inactive) and the GI50 (MDA-N) was 13.8 µM (inactive). The GI50 (SNB-19) was 39.4 µM (inactive), the GI50 (ACHN) was 17.5 µM (inactive) and the GI50 (MOLT-4) was 19.5 µM (inactive). For the same compound, the GI50 (UACC-62) was 29.5 µM (inactive), the GI50 (SK-MEL-5) was 21.9 µM (inactive) and the GI50 (CAKI-1) was 19.7 µM (inactive). For the same compound, the GI50 (A549) was 18.6 µM (inactive), the GI50 (HL-60) was 22.6 µM (inactive) and the GI50 (IGROV-1) was 25.8 µM (inactive). The GI50 (SNB-75) was 24.8 µM (inactive), the GI50 (COLO 205) was 25.1 µM (inactive) and the GI50 (DU-145) was 17.7 µM (inactive). The GI50 (SK-MEL-2) was 26.7 µM (inactive), the GI50 (MDA-MB-231) was 50.2 µM (inactive) and the GI50 (OVCAR-8) was 26.7 µM (inactive). The GI50 (KM12) was 5.11 µM (inactive), the GI50 (NCI-H23) was 19.5 µM (inactive) and the GI50 (786-0) was 19.1 µM (inactive). The GI50 (HCT-15) was 24.9 µM, the GI50 (MDA-MB-435) was 23.1 µM (inactive) and the GI50 (OVCAR-4) was 18.6 µM (inactive). For the same compound, the GI50 (HCT-116) was 17.6 µM (inactive), the GI50 (SW-620) was 19.2 µM (inactive) and the GI50 (HOP-62) was 21.9 µM (inactive). The GI50 (OVCAR-3) was 18.1 µM (inactive), the GI50 (Malme-3M) was 15.6 µM (inactive) and the GI50 (SK-MEL-28) was 18.9 µM (inactive). For the same compound, the GI50 (NCI-H522) was 22.9 µM (inactive), the GI50 (EKVX) was 19.1 µM (inactive) and the GI50 (RPMI-8226) was 21.6 µM (inactive). For the same compound, the GI50 (M14) was 27.5 µM (inactive), the GI50 (OVCAR-5) was 22.3 µM (inactive) and the GI50 (BT-549) was 23.2 µM (inactive). For the same compound, the GI50 (K562) was 28.6 µM (inactive), the GI50 (RXF 393) was 19.3 µM (inactive) and the GI50 (NCI/ADR-RES) was 20.1 µM (inactive). The GI50 (A498) was 15.1 µM (inactive), the GI50 (UO-31) was 19.1 µM (inactive) and the GI50 (NCI-H226) was 19.4 µM (inactive). For the same compound, the GI50 (SN12C) was 18.2 µM (inactive), the GI50 (MCF7) was 24.8 µM (inactive) and the GI50 (SR) was 15.2 µM (inactive). The GI50 (PC-3) was 19.9 µM (inactive), the GI50 (SF-268) was 19.8 µM (inactive) and the GI50 (HCC 2998) was 20.9 µM (inactive). The GI50 (TK-10) was 19.9 µM (inactive).
With `COc1ccc2c(c1)CCc1c(-c3noc4c3CCc3cc(OC)ccc3-4)noc1-2` the GI50 (UACC-257) was > 100 µM (inactive), the GI50 (SF-295) was > 100 µM (inactive) and the GI50 (U-251) was > 100 µM (inactive). For the same compound, the GI50 (HOP-92) was > 100 µM (inactive), the GI50 (T47D) was > 100 µM (inactive) and the GI50 (SF-539) was > 100 µM (inactive). The GI50 (NCI-H460) was > 100 µM (inactive), the GI50 (SK-OV-3) was > 100 µM (inactive) and the GI50 (Hs-578T) was > 100 µM (inactive). For the same compound, the GI50 (HT-29) was > 100 µM (inactive), the GI50 (MDA-N) was > 100 µM (inactive) and the GI50 (SNB-19) was > 100 µM (inactive). For the same compound, the GI50 (ACHN) was > 100 µM (inactive), the GI50 (MOLT-4) was > 100 µM (inactive) and the GI50 (UACC-62) was > 100 µM (inactive). For the same compound, the GI50 (SK-MEL-5) was > 100 µM (inactive), the GI50 (CAKI-1) was > 100 µM (inactive) and the GI50 (A549) was > 100 µM (inactive). For the same compound, the GI50 (HL-60) was > 100 µM (inactive), the GI50 (IGROV-1) was > 100 µM (inactive) and the GI50 (SNB-75) was > 100 µM (inactive). The GI50 (COLO 205) was > 100 µM (inactive), the GI50 (DU-145) was > 100 µM (inactive) and the GI50 (SK-MEL-2) was > 100 µM (inactive). The GI50 (MDA-MB-231) was > 100 µM (inactive), the GI50 (OVCAR-8) was > 100 µM (inactive) and the GI50 (KM12) was > 100 µM (inactive). For the same compound, the GI50 (NCI-H23) was > 100 µM (inactive), the GI50 (786-0) was > 100 µM (inactive) and the GI50 (HCT-15) was > 100 µM. The GI50 (MDA-MB-435) was > 100 µM (inactive), the GI50 (OVCAR-4) was > 100 µM (inactive) and the GI50 (HCT-116) was > 100 µM (inactive). The GI50 (SW-620) was > 100 µM (inactive), the GI50 (HOP-62) was > 100 µM (inactive) and the GI50 (OVCAR-3) was > 100 µM (inactive). The GI50 (Malme-3M) was > 100 µM (inactive), the GI50 (SK-MEL-28) was > 100 µM (inactive) and the GI50 (NCI-H522) was > 100 µM (inactive). For the same compound, the GI50 (EKVX) was 53.1 µM (inactive), the GI50 (RPMI-8226) was > 100 µM (inactive) and the GI50 (M14) was > 100 µM (inactive). For the same compound, the GI50 (OVCAR-5) was > 100 µM (inactive), the GI50 (BT-549) was > 100 µM (inactive) and the GI50 (K562) was > 100 µM (inactive). The GI50 (RXF 393) was > 100 µM (inactive), the GI50 (NCI/ADR-RES) was > 100 µM (inactive) and the GI50 (A498) was > 100 µM (inactive). The GI50 (UO-31) was > 100 µM (inactive), the GI50 (NCI-H226) was > 100 µM (inactive) and the GI50 (SN12C) was > 100 µM (inactive). The GI50 (MCF7) was > 100 µM (inactive), the GI50 (SR) was > 100 µM (inactive) and the GI50 (PC-3) was > 100 µM (inactive). For the same compound, the GI50 (SF-268) was > 100 µM (inactive), the GI50 (HCC 2998) was 40.4 µM (inactive) and the GI50 (LOX IMVI) was > 100 µM (inactive). The GI50 (TK-10) was > 100 µM (inactive).
